Reference: ChEMBL document CHEMBL5214990, “Novel Aryl Alkamidazole Derivatives as Multifunctional Antifungal Inhibitors: Design, Synthesis, and Biological Evaluation” (J Med Chem, 2022)
Converted amounts (≈) assume the structure as drawn. The source made the active and inactive calls. No cut-off for these calls is given here.

Tests used:
[1] = test system: Candida albicans; experiment: Antifungal activity against Candida albicans infected in mouse assessed as reduction in fungal proliferation in the infection region at 20 mg/kg, ip administered on days 2,4,6,8,10,12 and measured on day 14 by GMS staining based analysis; assay type: functional, organism-based; settings: time 13.0 day
[2] = molecular target: T1, Lanosterol 14-alpha demethylase (Candida albicans (strain SC5314 / ATCC MYA-2876) (Yeast), UniProt P10613); experiment: Inhibition of CYP51 in Candida albicans ATCC SC5314 assessed as reduction in substrate consumption using lanosterol as substrate preincubated for 30 mins followed by substrate addition and measured after 60 mins by HPLC analysis
[3] = test system: Candida albicans; experiment: Antifungal activity against fluconazole-resistant Candida albicans 904 assessed as inhibition of fungal growth measured after 72 hrs by CLSI based liquid medium dilution method; assay type: functional
[4] = test system: Candida albicans; experiment: Antifungal activity against Candida albicans infected in mouse assessed as reduction in necrotic cell fragments in intercellular spaces of the infection region at 20 mg/kg, ip administered on days 2,4,6,8,10,12 and measured on day 14 by GMS staining based analysis; assay type: functional, organism-based; settings: time 13.0 day
[5] = test system: Candida albicans; experiment: Induction of mitochondrial membrane depolarization in Candida albicans assessed as fungal cells with depolarized mitochondria measured after 24 hrs by JC-1 staining based flow cytometry (reference value: 3.22%); assay type: functional
[6] = test system: Candida albicans; experiment: Induction of apoptosis in Candida albicans assessed as necrotic cells measured after 24 hrs by Annexin V-FITC/PI staining based flow cytometry (reference value: 3.37%); assay type: functional
[7] = test system: Candida albicans; experiment: Antifungal activity against Candida albicans infected in mouse assessed as reduction in fungal proliferation in the infection region at 20 mg/kg, ip administered on days 2,4,6,8,10,12 and measured on day 14 by hematoxylin-eosin staining based analysis; assay type: functional, organism-based; settings: time 13.0 day
[8] = test system: Candida albicans; experiment: Induction of apoptosis in Candida albicans assessed as early apoptotic cells measured after 24 hrs by Annexin V-FITC/PI staining based flow cytometry (reference value: 0.46%); assay type: functional
[9] = test system: Pichia kudriavzevii; experiment: Antifungal activity against Candida krusei ATCC 6258 assessed as inhibition of fungal growth measured after 72 hrs by CLSI based liquid medium dilution method; assay type: functional
[10] = test system: Candida albicans; experiment: Induction of mitochondrial membrane depolarization in Candida albicans assessed as fungal cells with intact mitochondria measured after 24 hrs by JC-1 staining based flow cytometry (reference value: 95.9%); assay type: functional
[11] = test system: Mus musculus; experiment: Anti-inflammatory activity in mouse infected with Candida albicans assessed as reduction in IL-6R expression in infection tissues at 20 mg/kg, ip administered on days 2,4,6,8,10,12 and measured on day 14 by western blot analysis; assay type: functional, organism-based; settings: time 13.0 day
[12] = test system: Candida albicans; experiment: Antifungal activity against fluconazole-resistant Candida albicans 632 assessed as inhibition of fungal growth measured after 72 hrs by CLSI based liquid medium dilution method; assay type: functional
[13] = Hepatotoxicity in mouse infected with Candida albicans assessed as plasma AST level at 20 mg/kg, ip administered on days 2,4,6,8,10,12 and measured on day 14 (reference value: 53.4 +/-6.8 IU/L); assay type: toxicity, organism-based; settings: in vivo, 312 h, time 13 day
[14] = test system: Mus musculus; experiment: Anti-inflammatory activity in mouse infected with Candida albicans assessed as reduction in NF-kappaB p65 expression in spleen at 20 mg/kg, ip administered on days 2,4,6,8,10,12 and measured on day 14 by immunohistochemical analysis; assay type: functional, organism-based; settings: time 13.0 day
[15] = test system: Candida albicans; experiment: Induction of apoptosis in Candida albicans assessed as viable cells measured after 24 hrs by Annexin V-FITC/PI staining based flow cytometry (reference value: 95.7%); assay type: functional
[16] = test system: Mus musculus; experiment: Anti-inflammatory activity in mouse infected with Candida albicans assessed as reduction in NF-kappaB p65 expression in infection tissues at 20 mg/kg, ip administered on days 2,4,6,8,10,12 and measured on day 14 by western blot analysis; assay type: functional, organism-based; settings: time 13.0 day
[17] = test system: Candida albicans; experiment: Antifungal activity against fluconazole-resistant Candida albicans 901 assessed as inhibition of fungal growth measured after 72 hrs by CLSI based liquid medium dilution method; assay type: functional
[18] = test system: Mus musculus; experiment: Anti-inflammatory activity in mouse infected with Candida albicans assessed as reduction in COX-2 expression in infection tissues at 20 mg/kg, ip administered on days 2,4,6,8,10,12 and measured on day 14 by western blot analysis; assay type: functional, organism-based; settings: time 13.0 day
[19] = test system: Candida albicans; experiment: Antifungal activity against Candida albicans infected in mouse assessed as reduction in total amount of fungal cells in infection region at 20 mg/kg, ip administered on days 2,4,6,8,10,12 and measured on day 14 by GMS staining based analysis; assay type: functional, organism-based; settings: time 13.0 day
[20] = test system: Candida albicans; experiment: Antifungal activity against Candida albicans ATCC SC5314 assessed as inhibition of fungal growth measured after 72 hrs by CLSI based liquid medium dilution method; assay type: functional
[21] = Renal toxicity in mouse infected with Candida albicans assessed as blood urea nitrogen level at 20 mg/kg, ip administered on days 2,4,6,8,10,12 and measured on day 14 (reference value: 16.2 +/-1.6 mmol/L); assay type: organism-based; settings: in vivo, 312 h, time 13 day
[22] = molecular target: T1, Lanosterol 14-alpha demethylase; experiment: Inhibition of CYP51 in Candida albicans ATCC SC5314 assessed as eburicol content at 4 ug/ml measured after 48 hrs by GC-MS analysis (reference value: 1.84%); set-up: scale not given: the % may be the effect or the level left; settings: at 4 µg/mL
[23] = test system: Candida albicans; experiment: Antifungal activity against Candida albicans infected in mouse assessed as disappearance of nuclear aggregation in the infection region at 20 mg/kg, ip administered on days 2,4,6,8,10,12 and measured on day 14 by hematoxyin-eosin staining based analysis; assay type: functional, organism-based; settings: time 13.0 day
[24] = test system: Candida albicans; experiment: Antifungal activity against Candida albicans infected in mouse assessed as reduction in total amount of fungal cells in infection region at 20 mg/kg, ip administered on days 2,4,6,8,10,12 and measured on day 14 by hematoxyin-eosin staining based analysis; assay type: functional, organism-based; settings: time 13.0 day
[25] = test system: Mus musculus; experiment: Anti-inflammatory activity in mouse infected with Candida albicans assessed as reduction in PD-L1 expression in infection tissue at 20 mg/kg, ip administered on days 2,4,6,8,10,12 and measured on day 14 by western blot analysis; assay type: functional, organism-based; settings: time 13.0 day
[26] = test system: Aspergillus fumigatus; experiment: Antifungal activity against Aspergillus fumigatus KM8001 assessed as inhibition of fungal growth measured after 72 hrs by CLSI based liquid medium dilution method; assay type: functional
[27] = molecular target: T1, Lanosterol 14-alpha demethylase; experiment: Inhibition of CYP51 in Candida albicans ATCC SC5314 assessed as unknown sterol content at 4 ug/ml measured after 48 hrs by GC-MS analysis; set-up: scale not given: the % may be the effect or the level left; settings: at 4 µg/mL
[28] = molecular target: T1, Lanosterol 14-alpha demethylase; experiment: Inhibition of CYP51 in Candida albicans ATCC SC5314 assessed as ergosterol content at 4 ug/ml measured after 48 hrs by GC-MS analysis (reference value: 95.61%); set-up: scale not given: the % may be the effect or the level left; settings: at 4 µg/mL
[29] = test system: Mus musculus; experiment: Anti-inflammatory activity in mouse infected with Candida albicans assessed as reduction in COX-2 expression in spleen at 20 mg/kg, ip administered on days 2,4,6,8,10,12 and measured on day 14 by immunohistochemical analysis; assay type: functional, organism-based; settings: time 13.0 day
[30] = test system: Candida tropicalis; experiment: Antifungal activity against Candida tropicalis ATCC 1369 assessed as inhibition of fungal growth measured after 72 hrs by CLSI based liquid medium dilution method; assay type: functional
[31] = test system: Candida albicans; experiment: Antifungal activity against fluconazole-resistant Candida albicans 17# assessed as inhibition of fungal growth measured after 72 hrs by CLSI based liquid medium dilution method; assay type: functional

T1 sequence (P10613 whole entry): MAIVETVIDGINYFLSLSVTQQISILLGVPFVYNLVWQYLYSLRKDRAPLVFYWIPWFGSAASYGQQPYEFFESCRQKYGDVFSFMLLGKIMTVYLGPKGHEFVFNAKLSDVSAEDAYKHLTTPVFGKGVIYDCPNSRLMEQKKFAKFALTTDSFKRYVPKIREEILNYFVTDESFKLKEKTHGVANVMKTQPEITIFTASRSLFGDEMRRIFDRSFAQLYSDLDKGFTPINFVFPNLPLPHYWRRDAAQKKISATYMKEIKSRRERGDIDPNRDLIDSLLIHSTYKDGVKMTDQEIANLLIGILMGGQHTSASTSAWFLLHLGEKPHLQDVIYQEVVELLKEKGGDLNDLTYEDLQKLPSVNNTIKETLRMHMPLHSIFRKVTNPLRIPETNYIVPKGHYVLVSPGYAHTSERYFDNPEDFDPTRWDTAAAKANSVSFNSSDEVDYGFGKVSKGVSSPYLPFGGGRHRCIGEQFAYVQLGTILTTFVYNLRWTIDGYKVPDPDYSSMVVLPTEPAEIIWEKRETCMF

SMILES | Activity [1] | IC50 [2] | MIC50 [3] | Activity [4] | Activity [5] | Activity [6] | Activity [7] | Activity [8] | MIC50 [9] | Activity [10] | Activity [11] | MIC50 [12] | Activity [13] | Activity [14] | Activity [15] | Activity [16] | MIC50 [17] | Activity [18] | Activity [19] | MIC50 [20] | further results
C[C@H](C(=O)N(C)CC(O)(Cn1ccnc1)c1ccc(Cl)cc1)c1ccc(-c2ccccc2)c(F)c1 (stereo partly drawn) | Active | 190 nM | 2 µg/mL (≈ 4.07 µM) | Active | 67.3% | 34.3% | Active | 1.8% | 0.25 µg/mL (≈ 0.508 µM) | 32.6% | Active | 4 µg/mL (≈ 8.13 µM) | 69.5 IU/L | Active | 44.4% | Active | 0.5 µg/mL (≈ 1.02 µM) | Active | Active | 0.125 µg/mL (≈ 0.254 µM) | Activity [21]: 20.5 mmol/L; Activity [22]: 43.28%; Activity [23]: Active; Activity [24]: Active; Activity [25]: Active; MIC50 [26]: 2 µg/mL (≈ 4.07 µM); Activity [27]: 3.47%; Activity [28]: 13.51%; Activity [29]: Active; MIC50 [30]: 0.25 µg/mL (≈ 0.508 µM); MIC50 [31]: 2 µg/mL (≈ 4.07 µM)
C[C@H](C(=O)N(C)CC(O)(Cn1ccnc1)c1ccc(Cl)cc1Cl)c1cccc(C(=O)c2ccccc2)c1 (stereo partly drawn) | Active | 160 nM | 1 µg/mL (≈ 1.86 µM) | Active | 66.6% | 26% | Active | 2.13% | 0.125 µg/mL (≈ 0.233 µM) | 53.1% | Active | 2 µg/mL (≈ 3.73 µM) | 66.5 IU/L | Active | 43.8% | Active | 0.5 µg/mL (≈ 0.932 µM) | Active | Active | 0.125 µg/mL (≈ 0.233 µM) | Activity [21]: 17 mmol/L; Activity [22]: 50.87%; Activity [23]: Active; Activity [24]: Active; Activity [25]: Active; MIC50 [26]: 2 µg/mL (≈ 3.73 µM); Activity [27]: 2.61%; Activity [28]: 7.95%; Activity [29]: Active; MIC50 [30]: 0.25 µg/mL (≈ 0.466 µM); MIC50 [31]: 2 µg/mL (≈ 3.73 µM)
OC(Cn1cncn1)(Cn1cncn1)c1ccc(F)cc1F [FLUCONAZOLE] | Active | 110 nM | > 8 µg/mL | Active | 19.1% | 13% | Active | 12.3% | 1 µg/mL (≈ 3.27 µM) | 60.8% | Active | > 8 µg/mL | 80.5 IU/L | Active | 68.7% | Active | > 8 µg/mL | Active | Active | 0.5 µg/mL (≈ 1.63 µM) | Activity [21]: 24.4 mmol/L; Activity [22]: 40.17%; Activity [23]: Active; Activity [24]: Active; Activity [25]: Active; MIC50 [26]: > 8 µg/mL; Activity [27]: 4.09%; Activity [28]: 20.57%; Activity [29]: Active; MIC50 [30]: 0.5 µg/mL (≈ 1.63 µM); MIC50 [31]: > 8 µg/mL
